From PMC12311729, “Probing the Mechanism of L‑DOPA 2,3-Dioxygenase Using Synthetic Derivatives of 3,4-Dihydroxyhydrocinnamic Acid” (ACS Omega, 2025)

Tests used:
[1] = target: L-DOPA 2,3-dioxygenase from S. hygroscopicus jingganensis (ShjDDO) (Streptomyces hygroscopicus, UniProt H2JL11); test: UV-visible steady-state assay of L-DOPA 2,3-dioxygenase (ShjDDO); type: biochemical; settings: for kSP, O2 (μM^-1 min^-1) at pH 7.5 relative to L-DOPA x 100 for ShjDDO: percentage of the value for L-DOPA
Experimental: (§1) Purified, reconstituted L-DOPA 2,3-dioxygenases were assessed for activity by monitoring the cleavage of catecholic substrates using UV–visible spectroscopy. 3,4-Dihydroxyhydrocinnamic acid (DHHCA, 3) was purchased from Sigma-Aldrich. 6-CyanoDHHCA (5) and 6-bromoDHHCA (4) were synthesized as described above.
(§2) Molecular oxygen (AirGas) was bubbled directly into the reaction buffer through a glass-bonded silica gas diffuser (Bubblemac Industries, Inc.) or as a gas mixture blended with air (AirGas). Solutions were bubbled with oxygen for several minutes prior to use and for the duration of the experiment. To determine the K M for oxygen (i.e., K MO2), L-DOPA 2,3-dioxygenases (0.25–4.0 μM) were reacted with a saturating concentration of the catecholic substrate DHHCA/6-X-DHHCA derivatives (2–10× the K M sufficient to achieve k cat) and various oxygen concentrations (21–100% or 270–1300 μM at 22 °C). The concentration of oxygen was varied by changing the percentage of oxygen in the blend using a galvanic oxygen sensor and oxygen monitor (AirGas) and then bubbling solutions, as described above. Molecular oxygen percentages were converted to molar concentrations using a reference temperature of 22 °C. The reaction of L-DOPA 2,3-dioxygenases with DHHCA/6-X-DHHCA derivatives as a function of oxygen concentration was followed by the appearance of the steady-state cleavage product by using UV–visible spectroscopy.
(§3) The extinction coefficients for steady-state cleavage products of DHHCA and synthetic 6-X-DHHCA derivatives were determined by reacting various concentrations of DHHCA/6-X-DHHCA derivatives at 22 °C with a 10-fold stoichiometric excess of enzyme (quantified by Fe^II–see Reconstitution) in 50 mM HEPES buffer with 154 mM NaCl at pH 7.5, bubbled with 100% oxygen to a final concentration of 780–910 μM, depending on the volume of oxygenated buffer that comprised the reaction (60–70%). Substrate solutions were prepared from authentic synthetic standards using an analytical balance, and reactions were run to completion as assessed by the appearance of the steady-state product. The λmax and extinction coefficients of DHHCA, 6-cyanoDHHCA, and 6-bromoDHHCA were determined herein as ε380 = 40 740 ± 820 M^–1cm^–1, ε385 = 33 256 ± 484 M^–1cm^–1, and ε380 = 35 282 ± 1190 M^–1cm^–1, respectively (Figure S52).
(§4) Steady-state kinetic data were obtained through a UV–visible spectroscopic assay. Initial rates were obtained from the slopes of the linear regions of the progress curves and plotted versus substrate concentration to yield a hyperbola, which was analyzed using the Michaelis–Menten expression and nonlinear least-squares fitting (NLSF) with Origin 6.0 (Microcal). Two possible derivations of the Michaelis–Menten expression were used: 1) the traditional expression y = k cat × x/(K M + x), where y is Rate/E 0 or the rate of product formation (μM/min) divided by the starting enzyme concentration (μM), x is substrate concentration (μM) and k SP (also known as k cat × K M ^–1)–that is, the second-order rate constant of enzyme and substrate–is extracted from the fitted constants; or 2) the alternative derivation that extracts k SP and k cat directly from the fit: y = (k SP × x)/((1 + k SP × x)/k cat), and where y is Rate/E 0 or the rate of product formation (μM/min) divided by the starting enzyme concentration (μM), x is substrate concentration (μM), k SP is equivalent to k cat×K M ^–1, and K M is extracted from k cat/k cat×K M ^–1.

[2] = target: L-DOPA 2,3-dioxygenase from S. lincolnensis (LmbB1) (Streptomyces lincolnensis, UniProt Q54354); test: UV-visible steady-state assay of L-DOPA 2,3-dioxygenase (LmbB1); type: biochemical; settings: for kSP, O2 (μM^-1 min^-1) at pH 7.5 relative to L-DOPA x 100 for LmbB1: percentage of the value for L-DOPA
Chain of L-DOPA 2,3-dioxygenase from S. lincolnensis (LmbB1) (Q54354 entry or part of it): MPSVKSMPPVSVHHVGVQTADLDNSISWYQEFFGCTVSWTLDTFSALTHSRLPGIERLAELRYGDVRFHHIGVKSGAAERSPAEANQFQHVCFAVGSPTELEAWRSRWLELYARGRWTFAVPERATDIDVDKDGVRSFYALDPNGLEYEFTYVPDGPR
Experimental: as §1, §2, §3, §4

Chain of L-DOPA 2,3-dioxygenase from S. hygroscopicus jingganensis (ShjDDO) (H2JL11 1-162): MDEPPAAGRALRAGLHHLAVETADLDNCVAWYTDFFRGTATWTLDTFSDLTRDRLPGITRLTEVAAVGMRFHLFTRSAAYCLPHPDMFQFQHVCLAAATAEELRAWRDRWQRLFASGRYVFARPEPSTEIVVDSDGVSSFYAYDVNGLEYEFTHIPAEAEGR

kcat at 22 °C and 100% O2 saturation ([1]; S. hygroscopicus jingganensis enzyme, pH 7.5): 1.1 × 10^–3 ± 1.0 × 10 ^–4 sec^–1
kSP,O2 × 10^2 at 22 °C ([1]; S. hygroscopicus jingganensis enzyme, values are kSP × 10^2): 4.0 × 10^–2 ± 6.0 × 10 ^–3 μM^–1 min^–1
kSP catechol × 10^2 at 22 °C ([1]; S. hygroscopicus jingganensis enzyme, values are kSP × 10^2, kSP = kcat/KM): 2.8 × 10^–2 ± 7.1 × 10 ^–3 μM^–1 min^–1
activity / turnover as substrate ([1]; ShjDDO, aerobic reaction observed by UV–visible spectroscopy): measurable activity
kSP, O2 (μM^-1 min^-1) at pH 7.5 relative to L-DOPA x 100 for ShjDDO ([1]; listed as 6-cyanoDHHCA): 0.03%
kSP, O2 (μM^-1 min^-1) at pH 7.5 relative to L-DOPA x 100 for ShjDDO ([1]; listed as 6-cyanoDHHCA (5)): < 0.1%
activity / turnover as substrate ([2]; LmbB1, aerobic reaction observed by UV–visible spectroscopy): measurable activity
kcat at 22 °C and 100% O2 saturation ([2]; S. lincolnensis enzyme, pH 7.5): 6.7 × 10^–4 ± 2.8 × 10 ^–5 sec^–1
kSP,O2 × 10^2 at 22 °C ([2]; S. lincolnensis enzyme, values are kSP × 10^2): 1.4 × 10^–2 ± 3.0 × 10 ^–3 μM^–1 min^–1
kSP catechol × 10^2 at 22 °C ([2]; S. lincolnensis enzyme, values are kSP × 10^2, kSP = kcat/KM): 3.1 × 10^–2 ± 3.9 × 10 ^–3 μM^–1 min^–1
kSP, O2 (μM^-1 min^-1) at pH 7.5 relative to L-DOPA x 100 for LmbB1 ([2]; listed as 6-cyanoDHHCA): 0.02%
kSP, O2 (μM^-1 min^-1) at pH 7.5 relative to L-DOPA x 100 for LmbB1 ([2]; listed as 6-cyanoDHHCA (5)): < 0.1%
Structure (SMILES): N#Cc1cc(O)c(O)cc1CCC(=O)O [6-CyanoDHHCA (5), 3-(2-cyano-4,5-dihydroxyphenyl) propanoic acid]
